Results reported in patent publication US20100305315A1, “Process for the preparation of 2-(primary/secondary amino)hydrocarbyl)-carbamoyl-7-oxo-2,6-diaza-bicyclo [3.2.0.]heptane-6-sulfonic acid derivatives” (Basilea Pharmaceutica AG, priority 2007, published 2010).

Assay: physchem
Details: 25 °C, organic solvent or mixture

In the case of `O=C1[C@H]2NCC[C@H]2N1S(=O)(=O)O` [(1S,5R)-7-oxo-2,6-diaza-bicyclo[3.2.0]heptane-6-sulfonic acid], the solubility is reported as ≤ 200 mg/mL.
